Reference: BindingDB's records for doi:10.1016/j.bioorg.2016.07.011 (Universiti Teknologi Mara (Uitm), 2016)

These compounds were tested against Carbonic anhydrase 2 (Bos taurus, UniProt P00921) (assay: Carbonic Anhydrase (bCAII) Inhibition Assay). Conditions: pH 7.2.
Method: This was assay performed using buffer containing Tris and HEPES at the pH of 7.2-7.9 and a total concentration of 20 mM. 96-well plates were filled with 140 µL of Tris-HEPES solution, 20 µL of bovine erythrocyte carbonic anhydrase II solution (0.1-0.2 mg/2000 mL), and 20 µL of 0.7 mM para-nitrophenyl acetate (diluted in ethanol). Test compounds were incubated at 25-28 °C for 15 min prior to addition of para-nitrophenyl acetate, which starts the reaction. The reaction was allowed to taking place for 30 min at 25-28 °C. All compounds tested in triplicate at different concentration. The amount of product that forms during thereaction monitored at 400 nm after 30 min using SPECTRA-max 340 spectrophotometer, Molecular Devices (USA).

Sequence of Carbonic anhydrase 2 (P00921 whole entry): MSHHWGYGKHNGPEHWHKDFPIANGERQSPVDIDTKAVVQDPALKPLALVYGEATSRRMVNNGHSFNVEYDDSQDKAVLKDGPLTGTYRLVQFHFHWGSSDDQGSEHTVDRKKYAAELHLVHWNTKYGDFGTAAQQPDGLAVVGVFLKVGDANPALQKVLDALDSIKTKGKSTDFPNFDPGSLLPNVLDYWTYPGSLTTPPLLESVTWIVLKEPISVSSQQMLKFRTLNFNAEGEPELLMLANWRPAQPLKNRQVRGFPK

Compound	IC50
COc1ccc(Cl)cc1S(=O)(=O)Nc1ccc(C(c2c[nH]c3ccc(Cl)cc23)c2c[nH]c3ccc(Cl)cc23)cc1 [N-(4-(bis(5-chloro-1H-indol-3-yl)methyl)phenyl)-5-chloro-2-methoxybenzene sulfonamide (5e)]	176 µM
O=S(=O)(Nc1ccc(C(c2c[nH]c3ccc(Br)cc23)c2c[nH]c3ccc(Br)cc23)cc1)c1cc(Cl)c(Cl)cc1Cl [N-(4-(bis(5-bromo-1H-indol-3-yl)methyl)phenyl)-2,4,5-trichlorobenzenesulfonamide (4f)]	40.3 µM
Cc1ccc([N+](=O)[O-])cc1S(=O)(=O)Nc1ccc(C(c2c[nH]c3ccc(Cl)cc23)c2c[nH]c3ccc(Cl)cc23)cc1 [N-(4-(bis(5-chloro-1H-indol-3-yl)methyl)phenyl)-2-methyl-5-nitrobenzenesulfonamide (5i)]	14.3 µM
O=S(=O)(Nc1ccc(C(c2c[nH]c3ccc(Cl)cc23)c2c[nH]c3ccc(Cl)cc23)cc1)c1cc(Cl)c(Cl)cc1Cl [N-(4-(bis(5-chloro-1H-indol-3-yl)methyl)phenyl)-2,4,5-trichlorobenzenesulfonamide (5f)]	16.3 µM
O=[N+]([O-])c1ccc(S(=O)(=O)Nc2ccc(C(c3c[nH]c4ccc(Br)cc34)c3c[nH]c4ccc(Br)cc34)cc2)c([N+](=O)[O-])c1 [N-(4-(bis(5-bromo-1H-indol-3-yl)methyl)phenyl)-2,4-dinitrobenzenesulfonamide (4g)]	28.9 µM
O=[N+]([O-])c1ccc(S(=O)(=O)Nc2ccc(C(c3c[nH]c4ccc(Br)cc34)c3c[nH]c4ccc(Br)cc34)cc2)cc1 [N-(4-(bis(5-bromo-1H-indol-3-yl)methyl)phenyl)-4-nitrobenzenesulfonamide (4b)]	63.9 µM
O=[N+]([O-])c1ccccc1S(=O)(=O)Nc1ccc(C(c2c[nH]c3ccc(Br)cc23)c2c[nH]c3ccc(Br)cc23)cc1 [N-(4-(bis(5-bromo-1H-indol-3-yl)methyl)phenyl)-2-nitrobenzenesulfonamide (4d)]	65.2 µM
Cc1ccc([N+](=O)[O-])cc1S(=O)(=O)Nc1ccc(C(c2c[nH]c3ccc(Br)cc23)c2c[nH]c3ccc(Br)cc23)cc1 [N-(4-(bis(5-bromo-1H-indol-3-yl)methyl)phenyl)-2-methyl-5-nitrobenzenesulfonamide (4i)]	44.3 µM
O=S(=O)(Nc1ccc(C(c2c[nH]c3ccccc23)c2c[nH]c3ccccc23)cc1)c1cc(Cl)cc(Cl)c1O [3,5-Dichloro-N-(4-(di(1H-indol-3-yl)methyl)phenyl)-2-hydroxybenzenesulfonamide (3k)]	58.1 µM
O=S(=O)(Nc1ccc(C(c2c[nH]c3ccc(Br)cc23)c2c[nH]c3ccc(Br)cc23)cc1)c1ccc2ccccc2c1 [N-(4-(bis(5-bromo-1H-indol-3-yl)methyl)phenyl)naphthalene-2-sulfonamide (4c)]	90.4 µM
O=S(=O)(Nc1ccc(C(c2c[nH]c3ccc(Cl)cc23)c2c[nH]c3ccc(Cl)cc23)cc1)c1ccc(Cl)cc1 [N-(4-(bis(5-chloro-1H-indol-3-yl)methyl)phenyl)-4-chlorobenzenesulfonamide (5l)]	45.5 µM
O=S(=O)(Nc1ccc(C(c2c[nH]c3ccc(Cl)cc23)c2c[nH]c3ccc(Cl)cc23)cc1)c1cc(Cl)cc(Cl)c1O [N-(4-(bis(5-chloro-1H-indol-3-yl)methyl)phenyl)-3,5-dichloro-2-hydroxybenzenesulfonamide (5k)]	20.2 µM
O=[N+]([O-])c1ccccc1S(=O)(=O)Nc1ccc(C(c2c[nH]c3ccc(Cl)cc23)c2c[nH]c3ccc(Cl)cc23)cc1 [N-(4-(bis(5-chloro-1H-indol-3-yl)methyl)phenyl)-2-nitrobenzenesulfonamide (5d)]	44.5 µM
O=[N+]([O-])c1ccc(S(=O)(=O)Nc2ccc(C(c3c[nH]c4ccc(Cl)cc34)c3c[nH]c4ccc(Cl)cc34)cc2)c([N+](=O)[O-])c1 [N-(4-(bis(5-chloro-1H-indol-3-yl)methyl)phenyl)-2,4-dinitrobenzenesulfonamide (5g)]	15.6 µM
O=S(=O)(Nc1ccc(C(c2c[nH]c3ccc(Br)cc23)c2c[nH]c3ccc(Br)cc23)cc1)c1cc(Cl)cc(Cl)c1O [N-(4-(bis(5-bromo-1H-indol-3-yl)methyl)phenyl)-3,5-dichloro-2-hydroxybenzenesulfonamide (4k)]	18.8 µM
O=[N+]([O-])c1ccccc1S(=O)(=O)Nc1ccc(C(c2c[nH]c3ccccc23)c2c[nH]c3ccccc23)cc1 [N-(4-(di(1H-indol-3-yl)methyl)phenyl)-2-nitrobenzenesulfonamide (3d)]	35.9 µM
O=[N+]([O-])c1cc(S(=O)(=O)Nc2ccc(C(c3c[nH]c4ccc(Cl)cc34)c3c[nH]c4ccc(Cl)cc34)cc2)ccc1Cl [N-(4-(bis(5-chloro-1H-indol-3-yl)methyl)phenyl)-4-chloro-3-nitrobenzenesulfonamide (5h)]	68.9 µM
O=[N+]([O-])c1cc(S(=O)(=O)Nc2ccc(C(c3c[nH]c4ccc(Br)cc34)c3c[nH]c4ccc(Br)cc34)cc2)ccc1Cl [N-(4-(bis(5-bromo-1H-indol-3-yl)methyl)phenyl)-4-chloro-3-nitrobenzenesulfonamide (4h)]	83.1 µM
